Assay results published in patent US10188656B2, “Methods of treatment of malignancies” (Agios Pharmaceuticals, Inc., priority 2015, dated 2019).

Assays:
Assay type in all cases: in vivo, human
[1] = test system: rrAML with an IDH2 mutation; test: Example 5: FoundationOne Heme panel co-mutations versus response to COMPOUND 1 in rrAML patients
Description: FoundationOne Heme panel analysis was performed on 100 screening samples from rrAML patients in the trial described in Example 1. Sample types included peripheral blood and bone marrow.
While rare, co-occurring mutations in TET2 (5 patients) and IDH1 (4 patients) were also observed in this cohort. Mechanistically, mutations in these genes may counteract the efficacy of COMPOUND 1; however, presence of either of these mutated genes was not associated with significant decrease in ORR or complete response (CR) (Table 10).
To further investigate the association between NRAS mutations and ORR to COMPOUND 1, a more detailed analysis of individual mutation sites was performed. NRAS mutations at G12, G13, and Q61 are the most highly characterized sites known to result in constitutive RAS signaling, see Prior I A, Lewis P D, Mattos C. A comprehensive survey of Ras mutations in cancer, Cancer Res. 2012; 72(10):2457-67. When mutations at these sites were analyzed versus ORR to COMPOUND 1, the observed decrease in ORR became statistically significant (p=0.002, see, FIG. 9A and Table 11). Table 11 provides a contingency table indicating statistical significance of lower overall response rate seen in patients presenting with an NRAS co-mutation.

[2] = test system: advanced hematologic malignancies with an IDH2 mutation; test: Example 2: NRAS mutation status at screening versus COMPOUND 1 response (next generation sequencing, Fisher's exact test)
Description: A subset of the clinical samples from the trial described in Example 1 were analyzed at screening. Sample types included bone marrow, peripheral blood and mononuclear cells isolated from bone marrow or peripheral blood. DNAs were extracted from these samples and sequenced at Foundation Medicine (see http://foundationone.com/learn.php) using next generation sequencing technique.
A total of 60 genes were identified to carry at least one mutation in the analyzed set (including IDH2 gene). Fisher's exact test was conducted to evaluate the association of somatic mutations with clinical response (responders include CR, CRp, CRi and PR, indicated as +, while none-responders include SD and PD, indicated as − in Table 9). The P-values were adjusted by multiple-test correction.
Mutation status positive (+) means any known mutation(s) in NRAS, and negative (−) means no mutation in NRAS was present.
Positive response status (+) includes CR, mCR and PR and negative response status (−) includes stable disease (SD) and pregressive disease (PD).

2-HG plasma levels = test: Phase 1/2 study: pharmacodynamic response, 2-HG plasma levels; conditions: most subjects with R140Q mutation, all doses; sustained reduction by Day 1 of Cycle 2
Description: Subjects in the dose escalation phase and Part 1 Expansion also will undergo PK/PD assessments over a 10-hour period on C1D15, C2D1, and C4D1. […] These subjects will have urine collected for PK/PD evaluation at screening; prior to dosing on C1D15, C2D1 and Day 1 of all cycles thereafter; and at the End of Treatment visit. Available bone marrow biopsy samples also will be assessed for 2-HG and α-KG levels.
The starting dose of COMPOUND 1 recommended for evaluation is 100 mg QD. This is based on the safety, PK, pharmacodynamics and clinical activity of COMPOUND 1 observed to date in AG221-C-001. […] Thus a dose of 100 mg should adequately achieve inhibition of 2-HG in subjects with either R140Q or R172K mutation.
Serial blood sampling for determination of concentration-time profiles of COMPOUND 1 and its metabolite (6-(6-(trifluoromethyl)pyridin-2-yl)-N2-(2-(trifluoromethyl)pyridin-4-yl)-1,3,5-triazine-2,4-diamine). Urine sampling for determination of concentrations of COMPOUND 1 and its metabolite (6-(6-(trifluoromethyl)pyridin-2-yl)-N2-(2-(trifluoromethyl)pyridin-4-yl)-1,3,5-triazine-2,4-diamine) (dose escalation and Part 1 expansion subjects only). Blood and bone marrow sampling for determination of 2-HG and α-KG levels.

[3] = Phase 1/2 study: safety (AEs, NCI CTCAE v4.03); conditions: 100 mg, including ≥Grade 3
Excerpt: Monitoring of AEs, including determination of DLTs, serious adverse events (SAEs), and AEs leading to discontinuation; safety laboratory parameters; physical examination findings; vital signs; 12-lead ECGs; LVEF; and ECOG PS.
The severity of AEs will be assessed by the NCI CTCAE, Version 4.03.

[4] = rrAML, co-occurring ASXL1 mutation
[5] = rrAML, co-occurring ATM mutation
[6] = rrAML, co-occurring BCOR mutation
[7] = rrAML, co-occurring BCORL1 mutation
[8] = rrAML, co-occurring CBL mutation
[9] = rrAML, co-occurring CEBPA mutation
[10] = rrAML, co-occurring CUX1 mutation
[11] = rrAML, co-occurring DNMT3A mutation
[12] = rrAML, co-occurring ETV6 mutation
[13] = rrAML, co-occurring EZH2 mutation
[14] = rrAML, co-occurring FLT3 mutation
[15] = rrAML, co-occurring GATA2 mutation
[16] = rrAML, co-occurring IDH1 mutation
[17] = rrAML, co-occurring JAK2 mutation
[18] = rrAML, co-occurring KMT2A mutation
[19] = rrAML, co-occurring KRAS mutation
[20] = rrAML, co-occurring NPM1 mutation
[21] = rrAML, co-occurring NRAS mutation
[22] = rrAML, co-occurring PHF6 mutation
[23] = rrAML, co-occurring PTPN11 mutation
[24] = rrAML, co-occurring RUNX1 mutation
[25] = rrAML, co-occurring SETBP1 mutation
[26] = rrAML, co-occurring SF3B1 mutation
[27] = rrAML, co-occurring SRSF2 mutation
[28] = rrAML, co-occurring STAG2 mutation
[29] = rrAML, co-occurring TET2 mutation
[30] = rrAML, co-occurring TP53 mutation
[31] = rrAML, co-occurring U2AF1 mutation
[32] = rrAML, co-occurring WT1 mutation

## CC(C)(O)CNc1nc(Nc2ccnc(C(F)(F)F)c2)nc(-c2cccc(C(F)(F)F)n2)n1 [COMPOUND 1, 2-methyl-1-[(4-[6-(trifluoromethyl)pyridin-2-yl]-6-{[2-(trifluoromethyl)pyridin-4-yl]amino}-1,3,5-triazin-2-yl)amino]propan-2-ol]
[1]; NRAS mt (G12, G13, Q61)
  number of patients, No Response: 13
  number of patients, Response: 1
[1]; NRAS wt
  number of patients, No Response: 37
  number of patients, Response: 40
[1]; patients with the least (≤3) co-occurring mutations
  ORR: 69.2%
[1]; patients with the most (≥6) co-occurring mutations
  ORR: 23.3%
[1]; [4]
  CR: 0.269
  CR, OR: 0.583
  ORR: 0.385
  ORR, OR: 0.784
[1]; rrAML, co-occurring ASXL1 mutation (text)
  ORR: 39%
[1]; [5]
  CR: 0.500
  CR, OR: 1.721
  ORR: 0.500
  ORR, OR: 1.306
[1]; [6]
  CR: 0.308
  CR, OR: 0.743
  ORR: 0.385
  ORR, OR: 0.800
[1]; [7]
  CR: 0.000
  CR, OR: 0.334
  ORR: 0.000
  ORR, OR: 0.254
[1]; [8]
  CR: 0.333
  CR, OR: 0.853
  ORR: 0.333
  ORR, OR: 0.646
[1]; [9]
  CR: 0.167
  CR, OR: 0.331
  ORR: 0.167
  ORR, OR: 0.250
[1]; [10]
  CR: 0.500
  CR, OR: 1.721
  ORR: 0.500
  ORR, OR: 1.306
[1]; [11]
  CR: 0.359
  CR, OR: 0.945
  ORR: 0.513
  ORR, OR: 1.509
[1]; [12]
  CR: 0.000
  CR, OR: 0.334
  ORR: 0.500
  ORR, OR: 1.306
[1]; [13]
  CR: 0.200
  CR, OR: 0.418
  ORR: 0.200
  ORR, OR: 0.316
[1]; [14]
  CR: 0.200
  CR, OR: 0.408
  ORR: 0.200
  ORR, OR: 0.306
[1]; [15]
  CR: 0.000
  CR, OR: 0.334
  ORR: 0.000
  ORR, OR: 0.254
[1]; [16]
  CR: 0.250
  CR, OR: 0.563
  ORR: 0.500
  ORR, OR: 1.310
[1]; [17]
  CR: 0.000
  CR, OR: 0.182
  ORR: 0.000
  ORR, OR: 0.138
[1]; [18]
  CR: 0.286
  CR, OR: 0.662
  ORR: 0.357
  ORR, OR: 0.703
[1]; [19]
  CR: 0.200
  CR, OR: 0.418
  ORR: 0.400
  ORR, OR: 0.864
[1]; [20]
  CR: 0.250
  CR, OR: 0.548
  ORR: 0.417
  ORR, OR: 0.924
[1]; [21]
  CR: 0.063
  CR, OR: 0.099
  ORR: 0.188
  ORR, OR: 0.270
[1]; rrAML, co-occurring NRAS mutation (text)
  ORR: 19%
[1]; [22]
  CR: 0.333
  CR, OR: 0.850
  ORR: 0.500
  ORR, OR: 1.314
[1]; [23]
  CR: 0.000
  CR, OR: 0.148
  ORR: 0.000
  ORR, OR: 0.112
[1]; [24]
  CR: 0.217
  CR, OR: 0.429
  ORR: 0.261
  ORR, OR: 0.411
[1]; rrAML, co-occurring RUNX1 mutation (text)
  ORR: 26%
[1]; [25]
  CR: 0.000
  CR, OR: 0.237
  ORR: 0.000
  ORR, OR: 0.180
[1]; [26]
  CR: 0.000
  CR, OR: 0.237
  ORR: 0.000
  ORR, OR: 0.180
[1]; [27]
  CR: 0.293
  CR, OR: 0.637
  ORR: 0.341
  ORR, OR: 0.598
[1]; rrAML, co-occurring SRSF2 mutation (text)
  ORR: 34%
[1]; [28]
  CR: 0.455
  CR, OR: 1.462
  ORR: 0.455
  ORR, OR: 1.091
[1]; [29]
  CR: 0.333
  CR, OR: 0.853
  ORR: 0.333
  ORR, OR: 0.646
[1]; [30]
  CR: 0.000
  CR, OR: 0.334
  ORR: 0.000
  ORR, OR: 0.254
[1]; [31]
  CR: 0.500
  CR, OR: 1.721
  ORR: 1.000
  ORR, OR: 6.678
[1]; [32]
  CR: 0.333
  CR, OR: 0.853
  ORR: 0.333
  ORR, OR: 0.646
[2]; response status +, NRAS mutation +
  number of patients: 2
[2]; response status +, NRAS mutation −
  number of patients: 55
[2]; response status − (SD, PD), NRAS mutation +
  number of patients: 21
[2]; response status − (SD, PD), NRAS mutation −
  number of patients: 40
2-HG plasma levels
  inhibition of 2-HG plasma levels: up to 98%
[3]
  safety profile: consistent with that of lower doses
